Structures are written as SMILES. Like-named read-outs stand apart in the source and are kept apart here.

The EC50 is the concentration needed to bring the measured effect to its halfway point. For orientation: CC50 means the concentration at which the toxic effect on the cells reaches its halfway point. What is called Ki is the dissociation constant of the complex between target and ligand, obtained from inhibition or displacement. As a reminder, the half-life is the time in which the quantity being followed falls by half.

The test system of series [1] is DENV 4. Also on record: method as in PMID 29360474. The note with it: read-out: DENV4 EC50; cited from earlier work.
Series [2] has as its system DENV2. More on the design: method as in PMID 29360474. The note with it: cited from earlier work.
Series [3] in a line: Solubility observations in culture media and vehicles. The series is classed as physicochemical. The note with it: for Dissolution in culture media, DMSO and NSS: data not shown; for Concentration above which compound was only partially dissolved: cell culture test conditions.
Series [4] relates to dengue virus serotype 2 (DENV2), New Guinea C strain. As to the kind of experiment: DENV2 NGC effective concentration (EC50) test in LLC/MK2 cells, plaque titration. The series is classed as cell-based. The note with it: for EC50: Dengue virus, DENV2 NGC in LLC/MK2 cells, MOI 0.1, 72 h, plaque titration; for SI NGC (CC50/EC50): LLC/MK2 CC50 / DENV2 NGC EC50. The procedure:
(§1) LLC/MK2 were seeded at 5 × 10^4 cells per well of 24-well plate in growth medium and incubated overnight at 37 °C under 5% CO2. Cells were infected with DENV2 NGC at the multiplicity of infection (MOI) of 0.1 for 1 h with gentle rocking every 15 min. Cells were washed with PBS and incubated with MEM supplemented with 1% fetal bovine serum, 100 I.U./mL penicillin, and 100 μg/mL streptomycin. The compound was added to the virus-infected cells during and after infection. The cells were incubated for 72 h, unless otherwise indicated, at 37 °C under 5% CO2. Supernatants were collected and the viral infectivity was analyzed by 96-well plaque titration. Data were plotted and the EC50 values were calculated by nonlinear regression analysis. Each concentration was tested in duplicate and the results were reported as the means and standard deviation of three independent experiments. The selectivity index was calculated from the ratio of CC50 and EC50. Moreover, additional EC50s of TH002 and TH011 were also taken from Huh-7 (8 × 10^4 cells) and DENV2 16,681 (MOI of 1). Supernatants were collected after 72 h incubation for plaque titration EC50 values were calculated by nonlinear regression analysis. Data were presented by means and standard errors of three independent experiments.

The nature of series [5]: Cytotoxic concentration (CC50) test, MTS, LLC/MK2. The series is classed as cell-based, Macaca mulatta (rhesus monkey). The note with it: rhesus monkey, LLC/MK2 cells. The method, then:
(§2) LLC/MK2, THP-1, HEK-293, HepG2, or Huh-7 cells were seeded at 10^4 cells per well of 96-well plate and incubated overnight. Compounds were prepared to 6-10 different concentrations in filter-sterilized dimethylsulfoxide (Merck®, Darmstadt, Germany) before addition to the cells. The plates were incubated for 48 h before the MTS reagent (Promega®, Madison, WI, USA) was added to cells according to the manufacturer's protocol and incubated for 4 h before analysis by spectrophotometry at […]. Huh-7 cytotoxicity was assessed by the Alamar Blue assay (Invitrogen®, Waltham, MA, USA) and read by fluorometry at the excitation and emission wavelengths at 570 and 600 nm, respectively. Each compound was tested in triplicate. Cytotoxic concentrations (CC50) were calculated while using non-linear regression analysis and the results were reported as means and standard deviation of three independent experiments.

Series [6] relates to DENV envelope-induced fusion. As to the kind of experiment: Fusion inhibition study in C6/36 cells. The series is classed as cell-based, dengue virus serotype 2. The note with it: 10 µM, DENV2 NGC-infected C6/36 cells, 0.5 M MES pH 5.5. The method, then:
C6/36 were seeded at 1 × 10^5 cells per well of 24-well plate MEM that was supplemented with 10% FBS and incubated overnight at 28 °C. Cells were infected with the virus at the multiplicity of infection (MOI) of 1 for 1 h at 28 °C. Compounds TH002 and TH011 were diluted in DMSO and added to the infected cells to the final concentration of 10 µM in 1% DMSO after DENV2 NGC (M.O.I. of 1) infection. Cells were incubated with MEM supplemented with 1% fetal bovine serum for 48 h before the addition of 0.5 M MES. Cells were incubated for an additional 24–48 h at 28 °C until the fused cells were visualized under light microscope.
Figure S5. Fusion inhibition assay; TH002 and TH011 (10 µM) were incubated with the DENV2-infected cells for
2 days before addition of 0.5 M MES, pH 5.5. The 4G2 antibody was an inhibitor of DENV envelope fusion and
was used as a control. Pos and Neg were abbreviated from positive (DENV) and negative (media-only) controls,
(1 picture or pasted object on this page, not shown here)

The nature of series [7]: Cytotoxic concentration (CC50) test, MTS, HepG2. The note with it: human, HepG2 cells, HepG2, 48 h. The series is classed as cell-based. The method, then: as §2
Series [8] relates to DENV2 16681. The series is described as follows: DENV2 16681 EC50 test in Huh-7 cells, plaque titration. The series is classed as cell-based, dengue virus serotype 2. The note with it: for EC50: Dengue virus, DENV2 16681 in Huh-7 cells, MOI 1, 72 h, plaque titration; for SI (16681) (CC50/EC50): Huh-7 CC50 / DENV2 16681 EC50. The procedure: as §1
A short description of series [9]: Cytotoxic concentration (CC50) test, MTS, THP-1. The series is classed as cell-based. The note with it: human, THP-1 cells, THP-1, 48 h. The method, then: as §2
Series [10] has as its system C57BL/6 mice. The series is described as follows: Animal toxicity study, intravenous administration. The series is classed as in vivo, mouse. The note with it: 10 mg/kg intravenous. The procedure: The animal care and use protocol identification number 016-2562 was approved by the Institutional Animal Care and Use Committee (CU-ACUP) of the Faculty of Medicine, Chulalongkorn University, Bangkok, Thailand, based on the National Institutes of Health, USA’s criteria for the use and treatment of laboratory animals. Male 8-week-old C57BL/6 mice purchased from the National Laboratory Animal Center, Nakhornpathom, Thailand were used in the experiments. TH011 and TH002 were diluted with 10% DMSO in normal saline solution. The preparations were intravenously administered at the concentration of 10 mg/kg through a tail vein (n = 5/group). The 10% DMSO in normal saline solution was used as vehicle control. Blood were collected through tail vein nicking at day one, three, and eight after administration and the serum samples were kept at −80 °C until analysis. Renal function (serum creatinine; Scr) and liver function (serum alanine transaminase; ALT) were measured by colorimetric assays while using QuantiChromTM (DICT-500, BioAssay, Hayward, CA, USA) and EnzyChrom (EALT-100, BioAssay), respectively.

Series [11] in a line: Cytotoxic concentration (CC50) test, MTS, HEK-293. The series is classed as cell-based. The note with it: human, HEK-293 cells, HEK-293, 48 h. The method, then:
as §2

Series [12] can be described thus: Cytotoxic concentration (CC50) test, Alamar Blue, Huh-7. The series is classed as cell-based. The note with it: human, Huh-7 cells; Huh-7, Alamar Blue. The method, then: as §2
(In general: The colour change of resazurin is a common sign of viable cells or microbes.)

For series [13], the system named is DENV NS3 protease. The note with it: cited from earlier work.
Series [14] concerns LLC/MK2 cells. More on the design: method as in Srivarangkul et al. 2018 [11]. The note with it: ref Srivarangkul et al. 2018 [11]; cited from earlier work.
On the set-up of series [15]: method as in PMID 25744566. The note with it: human, 20 mg, iv drip; cited from earlier work.
Series [16] relates to dengue virus serotype 2 (DENV2), New Guinea C strain. Also on record: method as in Srivarangkul et al. 2018 [11]. The note with it: ref Srivarangkul et al. 2018 [11]; read-out: DENV2 NGC EC50; cited from earlier work.
The subject of series [17] is DENV NS5 polymerase. Also on record: method as in PMID 22050318. The note with it: cited from earlier work.
The subject of series [18] is Zika viruses. Also on record: method as in PMID 30959074. The note with it: read-out: Zika virus EC50; cited from earlier work.
Details of series [19]: method as in PMID 25744566. The note with it: rat, intravenous, 10 mg, single dose; cited from earlier work.

For the compound `COc1cc2c(c(O)c1C)C(=O)CC(c1ccccc1)O2` (stereo not drawn) [6-methylpinostrobin], the values for the EC50 in [1] and in series [2] were 11.7 ± 6.04 µM and 16 ± 5.38 µM, respectively.

For the compound `COc1c(Br)c(O)c2c(c1Br)OC(c1ccccc1)CC2=O` (stereo not drawn) [TH002, 6,8-dibromo-5-hydroxy-7-methoxyflavanone], in [3], the “Dissolution in culture media, DMSO and NSS” value is “completely dissolved”. The EC50 worked out at 5.86 ± 0.507 µM in series [4] and 3.19 µM in [8]. The “SI NGC (CC50/EC50)” value in series [4] was >17.0745,. Also, the half-maximal cytotoxic concentration (CC50) at 48 h in series [5] is greater than 100 µM; in [7], 49.9 ± 2.7 µM; in [9], 51.8 ± 2.3 µM; in [11] it was greater than 100 µM; in series [12] it was 76.4 ± 7.2 µM. Further, the “Inhibition of DENV envelope-induced fusion under acidic pH” value in [6] is “no fusion inhibition observed”. Besides, in [8], the “SI (16681) (CC50/EC50)” value is recorded as “(23.9342)”. Besides, the “ALT levels (hepatotoxicity)” value in series [10] (day 1 and 3) was “mildly elevated”; in series [10] (day 8), “decreased to normal”.

In the case of `O=C1CC(c2ccccc2)Oc2c(Br)c(O)c(Br)c(O)c21` (stereo not drawn) [TH011, 6,8-dibromo-5,7-dihydroxyflavanone], the “Dissolution in culture media, DMSO and NSS” value in series [3] was “completely dissolved”. In addition, the EC50 in [4] turned out to be 2.06 ± 0.754 µM; in series [8], 4.59 µM. Besides, in series [4], the “SI NGC (CC50/EC50)” value came to 32.5621. For the same compound, the CC50 at 48 h in [5] was 67.2 ± 0.973 µM; in [7] it was greater than 100 µM; in series [9] it was greater than 100 µM; in series [11] it was 93.2 ± 5.99 µM; in series [12], 48.3 ± 4.11 µM. Also, the “Inhibition of DENV envelope-induced fusion under acidic pH” value in series [6] is given as “no fusion inhibition observed”. For the same compound, the “SI (16681) (CC50/EC50)” value in series [8] is “(10.5201)”. In series [10] (day 1 and 3), the “ALT levels (hepatotoxicity)” value was “not obviously seen”.

In the case of `COc1c(I)c(O)c2c(c1I)OC(c1ccccc1)CC2=O` (stereo not drawn) [TH012, 6,8-diiodo-5-hydroxy-7-methoxyflavanone], the “Concentration above which compound was only partially dissolved” value in series [3] was “exceeded 10 µM”. For the same compound, in series [4], the response was half-maximal at 2.8 ± 1.55 µM (EC50) and the “SI NGC (CC50/EC50)” value is on record as greater than 3.5714. In [5], this compound showed a CC50 at 48 h greater than 10 µM.

For `COc1cc2c(c(O)c1I)C(=O)CC(c1ccccc1)O2` (stereo not drawn) [TH018, 6-iodo-5-hydroxy-7-methoxyflavanone], the “Concentration above which compound was only partially dissolved” value in series [3] is on record as greater than 25 µM. In [4], the EC50 was determined as 4.1 ± 1.84 µM and the “SI NGC (CC50/EC50)” value is reported as greater than 6.0945. The same compound returned a CC50 at 48 h in series [5] greater than 25 µM.

Regarding `COc1cc(O)c2c(c1)O[C@H](c1ccccc1)CC2=O` [TH019, pinostrobin], in series [4], the 50% effective concentration (EC50) stood at 10.8 ± 1.63 µM and the “SI NGC (CC50/EC50)” value is reported as 7.3242. In [5], the midpoint of cytotoxicity, the CC50 at 48 h, lay at 78.8 ± 2.92 µM. In [13], the “DENV NS3 protease IC50” value is given as 90.48 µg/mL and the Ki was 345 ± 70 µM.

On to `O=C1CC(c2ccccc2)Oc2cc(O)cc(O)c21` (stereo not drawn) [TH022, 5,7-dihydroxyflavanone], for which, in series [14], the CC50 is greater than 100 µM. Further, the “SI NGC (CC50/EC50)” value in [4] is greater than 6.47. The half-life in series [15] is 47 min; in series [19], 12 to 14 min. Further, the EC50 is 15.5 µM in series [16] and 17.4 µM in [18]. Besides, the “Inhibition of DENV NS5 polymerase activity” value in series [17] is on record as “not inhibit”. For the same compound, in series [13], the “DENV NS3 protease IC50” value is listed as 286.90 µg/mL.

The record behind these values is publication PMC7571160, “Dibromopinocembrin and Dibromopinostrobin Are Potential Anti-Dengue Leads with Mild Animal Toxicity” (Molecules, 2020).
